{"source": "patent US11291201B2", "about": "“Solutions for increasing the stability and shelf life of an organ and tissue preservation solution” (Marizyme, Inc., priority 2013, dated 2022)", "key": {"[1]": {"procedure": "The real time stability studies at 5° C. have progressed for about one year thus far.\n(§1) The values of the exponents in the equation derived from the exponential fit are the first order rate constant k1 (in units of days^−1)."}, "[2]": {"details": "40° C., Solution B", "source_text": "as §1"}}, "note": "Read-outs that look alike come from different tables or passages of the source.", "data": [{"smiles": "N[C@@H](CCC(=O)N[C@@H](CS)C(=O)NCC(=O)O)C(=O)O", "note": "[L-glutathione]", "values": [{"measurement": "time until product specification for L-glutathione approached its limit of expiration", "setting": "[1]; 5° C., from first order fit of 12-15 month real time data", "value": "about 100 months"}, {"measurement": "energy of activation for decomposition", "setting": "[1]; corresponds to Q10 value of 2.94", "value": 19.0, "unit": "kcal/mol"}, {"measurement": "time until product specification for L-glutathione approached its limit of expiration", "setting": "[2]", "value": "approximately 73 days"}]}]}
